Assay results reported in patent publication US11051515B2, “3-acyl-benzamides and their use as herbicides” (Bayer Aktiengesellschaft, priority 2017, dated 2021).

Tests used:
[1] = system: VERPE; experiment: Pre-emergence action against VERPE; type: in vivo, Veronica persica; conditions: Dosage 320 g/ha, pre-emergence
Method in brief: (§1)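 Seeds sown in sandy loam in wood-fiber pots and covered with soil. Greenhouse growth; visual damage scored after 3 weeks versus untreated controls (100% = dead, 0% = like control).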

[2] = system: VIOTR; experiment: Post-emergence action against VIOTR; type: in vivo, Viola tricolor; conditions: post-emergence, dosage 80 g/ha
Method in brief: (§2)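 Post-emergence foliar spray on greenhouse plants at the one-leaf stage, using wettable-powder or emulsion-concentrate formulations in water (600 to […], plus 0.2% wetting agent). Damage scored by eye roughly 3 weeks later against untreated plants: 0% = like control, 100% = dead.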

[3] = system: MATIN; experiment: Post-emergence action against MATIN; type: in vivo, Matricaria inodora; conditions: post-emergence, dosage 80 g/ha, visual assessment about 3 weeks after treatment vs untreated controls
Method in brief: as §2

[4] = system: ECHCG; experiment: Pre-emergence action against ECHCG; type: in vivo, Echinochloa crus-galli; conditions: pre-emergence, dosage 320 g/ha, scored visually after 3 weeks vs untreated controls
Method in brief: as §1

[5] = system: STEME; experiment: Post-emergence action against STEME; type: in vivo, Stellaria media; conditions: post-emergence, dosage 80 g/ha
Method in brief: as §2

[6] = system: PHBPU; experiment: Pre-emergence action against PHBPU; type: in vivo, Pharbitis purpurea; conditions: Dosage 320 g/ha, pre-emergence
Method in brief: as §1

[7] = system: MATIN; experiment: Pre-emergence action against MATIN; type: in vivo, Matricaria inodora; conditions: Dosage 320 g/ha, pre-emergence
Method in brief: as §1

[8] = system: LOLRI; experiment: Pre-emergence action against LOLRI; type: in vivo, Lolium rigidum; conditions: dosage 320 g/ha, scored visually after 3 weeks vs untreated controls
Method in brief: as §1

[9] = system: AMARE; experiment: Post-emergence action against AMARE; type: in vivo, Amaranthus retroflexus; conditions: post-emergence, dosage 80 g/ha, visual assessment about 3 weeks after treatment vs untreated controls
Method in brief: as §2

[10] = system: AMARE; experiment: Pre-emergence action against AMARE; type: in vivo, Amaranthus retroflexus; conditions: pre-emergence, dosage 320 g/ha, scored visually after 3 weeks vs untreated controls
Method in brief: as §1

[11] = system: ALOMY; experiment: Pre-emergence action against ALOMY; type: in vivo, Alopecurus myosuroides; conditions: dosage 320 g/ha; pre-emergence; scored visually after 3 weeks vs untreated controls; 100% = plants have died, 0% = like control plants
Method in brief: as §1

[12] = system: VIOTR; experiment: Pre-emergence action against VIOTR; type: in vivo, Viola tricolor; conditions: Dosage 320 g/ha, pre-emergence
Method in brief: as §1

[13] = system: DIGSA; experiment: Pre-emergence action against DIGSA; type: in vivo, Digitaria sanguinalis; conditions: dosage 320 g/ha, scored visually after 3 weeks vs untreated controls
Method in brief: as §1

[14] = system: SETVI; experiment: Pre-emergence action against SETVI; type: in vivo, Setaria viridis; conditions: pre-emergence, dosage 320 g/ha, scored visually after 3 weeks vs untreated controls
Method in brief: as §1

[15] = system: PHBPU; experiment: Post-emergence action against PHBPU; type: in vivo, Pharbitis purpurea; conditions: post-emergence, dosage 80 g/ha
Method in brief: as §2

[16] = system: VERPE; experiment: Post-emergence action against VERPE; type: in vivo, Veronica persica; conditions: dosage 80 g/ha
Method in brief: as §2

[17] = system: ECHCG; experiment: Post-emergence action against ECHCG; type: in vivo, Echinochloa crus-galli; conditions: post-emergence, dosage 80 g/ha, visual assessment about 3 weeks after treatment vs untreated controls
Method in brief: as §2

[18] = system: ABUTH; experiment: Post-emergence action against ABUTH; type: in vivo, Abutilon theophrasti; conditions: post-emergence, dosage 80 g/ha, visual assessment about 3 weeks after treatment vs untreated controls
Method in brief: as §2

[19] = system: ALOMY; experiment: Post-emergence action against ALOMY; type: in vivo, Alopecurus myosuroides; conditions: Dosage 80 g/ha, post-emergence
Method in brief: as §2

[20] = system: POLCO; experiment: Post-emergence action against POLCO; type: in vivo, Polygonum convolvulus; conditions: post-emergence, dosage 80 g/ha
Method in brief: as §2

[21] = system: STEME; experiment: Pre-emergence action against STEME; type: in vivo, Stellaria media; conditions: Dosage 320 g/ha, pre-emergence
Method in brief: as §1

[22] = system: DIGSA; experiment: Post-emergence action against DIGSA; type: in vivo, Digitaria sanguinalis; conditions: dosage 80 g/ha, visual assessment about 3 weeks after treatment vs untreated controls
Protocol: Seeds of monocotyledonous and dicotyledonous weed and crop plants are laid out in sandy loam soil in wood-fiber pots, covered with soil and cultivated in a greenhouse under good growth conditions. 2 to 3 weeks after sowing, the test plants are treated at the one-leaf stage. The compounds of the invention, formulated in the form of wettable powders (WP) or as emulsion concentrates (EC), are then sprayed onto the green parts of the plants in the form of an aqueous suspension or emulsion at a water application rate equating to […], with addition of 0.2% wetting agent. After the test plants have been left to stand in the greenhouse under optimal growth conditions for about 3 weeks, the action of the preparations is assessed visually in comparison to untreated controls (herbicidal action in percent (%): 100% activity=the plants have died, 0% activity=like control plants). […] At the same time, inventive compounds leave Gramineae crops such as barley, wheat, rye, millet/Sorghum, corn or rice virtually undamaged when applied post-emergence, even at high active ingredient dosages. In addition, some substances are also harmless to dicotyledonous crops such as soya, cotton, oilseed rape, sugar beet or potatoes. Some of the compounds according to the invention have high selectivity and are therefore suitable for controlling unwanted vegetation in agricultural crops by the post-emergence method. The data of Tables B18 to B34 below illustrate, in an exemplary manner, the […] herbicidal action of the compounds according to the invention, the herbicidal activity being stated in percent.

[23] = system: SETVI; experiment: Post-emergence action against SETVI; type: in vivo, Setaria viridis; conditions: post-emergence, dosage 80 g/ha, visual assessment about 3 weeks after treatment vs untreated controls
Method in brief: as §2

[24] = system: ABUTH; experiment: Pre-emergence action against ABUTH; type: in vivo, Abutilon theophrasti; conditions: pre-emergence, dosage 320 g/ha, scored visually after 3 weeks vs untreated controls
Method in brief: as §1

[25] = system: AVEFA; experiment: Pre-emergence action against AVEFA; type: in vivo, Avena fatua; conditions: dosage 320 g/ha, scored visually after 3 weeks vs untreated controls
Method in brief: as §1

[26] = system: AVEFA; experiment: Post-emergence action against AVEFA; type: in vivo, Avena fatua; conditions: post-emergence, dosage 80 g/ha, visual assessment about 3 weeks after treatment vs untreated controls
Method in brief: as §2

[27] = system: HORMU; experiment: Pre-emergence action against HORMU; type: in vivo, Hordeum murinum; conditions: Dosage 320 g/ha
Method in brief: as §1

Compound	Pre-emergence action against VERPE [1] [%]	Post-emergence action against VIOTR [2]	Post-emergence action against MATIN (herbicidal action in percent) [3] [%]	Pre-emergence action against ECHCG (herbicidal activity) [4] [%]	Post-emergence action against STEME [5]	Pre-emergence action against PHBPU [6] [%]	Pre-emergence action against MATIN [7] [%]	Pre-emergence action against LOLRI (herbicidal activity) [8] [%]	Post-emergence action against AMARE (herbicidal action in percent) [9] [%]	Pre-emergence action against AMARE (herbicidal activity) [10] [%]	Pre-emergence action against ALOMY (herbicidal activity in percent) [11] [%]	Pre-emergence action against VIOTR [12] [%]	Pre-emergence action against DIGSA (herbicidal activity) [13] [%]	SETVI (Table B8, pre-emergence herbicidal activity) [14] [%]	Post-emergence action against PHBPU [15]	Post-emergence action against VERPE [16]	Post-emergence action against ECHCG (herbicidal action in percent) [17] [%]	Post-emergence action against ABUTH (herbicidal action in percent) [18] [%]	Pre-emergence action against STEME [21] [%]	Post-emergence action against DIGSA (herbicidal action in percent) [22] [%]	also measured
Cn1nnnc1NC(=O)c1ccc(C(F)(F)F)c(C(=O)C2CCC2)c1Cl [1-153]	100	80	100	90	100	80	100	90	100	100	90	100	100	100	90	80	90	100	100	90	Post-emergence action against ALOMY [19]: 80%; Post-emergence action against POLCO [20]: 80; Post-emergence action against SETVI (herbicidal action in percent) [23]: 100%; Pre-emergence action against ABUTH (herbicidal activity) [24]: 100%; Pre-emergence action against AVEFA (herbicidal activity) [25]: 80%
CSc1c(C(=O)Nc2nnnn2C)ccc(C(F)(F)F)c1C(=O)C1CCC1 [1-284]	100	100	100	100	100	80	100	90	100	100	90	90	100	100	90	90	100	100	100	90	Post-emergence action against AVEFA (herbicidal action in percent) [26]: 80%; Pre-emergence action against HORMU [27]: 80%; Pre-emergence action against ABUTH (herbicidal activity) [24]: 100%; Pre-emergence action against AVEFA (herbicidal activity) [25]: 90%
